What was measured:
D283 Med [1] = assay: Antitumor activity against human D283 Med cells assessed as inhibition of cell proliferation; assay type: functional, cell-based
Daoy [2] = assay: Antitumor activity against human Daoy cells assessed as inhibition of cell proliferation; assay type: functional, cell-based
[3] = Inhibition of hedge hog pathway in mouse Sufu-KO-LIGHT cells expressing firefly luciferase reporter gene assessed as inhibition of Gli transcription incubated for 16 hrs by Bright-Glo luciferase assay; assay type: cell-based
Protein smoothened [4] = target: Protein smoothened (Homo sapiens, UniProt Q99835); assay: Binding affinity to human SMO (181 to 787 residues) expressed in human HEK293 cells assessed as radioactivity incubated for 2 hrs in presence of H3-labeled smo antagonist by ligand-displacement assay; assay type: cell-based
Protein smoothened (Homo sapiens, UniProt Q99835), sequence (Q99835 whole entry, the tested form may be a part): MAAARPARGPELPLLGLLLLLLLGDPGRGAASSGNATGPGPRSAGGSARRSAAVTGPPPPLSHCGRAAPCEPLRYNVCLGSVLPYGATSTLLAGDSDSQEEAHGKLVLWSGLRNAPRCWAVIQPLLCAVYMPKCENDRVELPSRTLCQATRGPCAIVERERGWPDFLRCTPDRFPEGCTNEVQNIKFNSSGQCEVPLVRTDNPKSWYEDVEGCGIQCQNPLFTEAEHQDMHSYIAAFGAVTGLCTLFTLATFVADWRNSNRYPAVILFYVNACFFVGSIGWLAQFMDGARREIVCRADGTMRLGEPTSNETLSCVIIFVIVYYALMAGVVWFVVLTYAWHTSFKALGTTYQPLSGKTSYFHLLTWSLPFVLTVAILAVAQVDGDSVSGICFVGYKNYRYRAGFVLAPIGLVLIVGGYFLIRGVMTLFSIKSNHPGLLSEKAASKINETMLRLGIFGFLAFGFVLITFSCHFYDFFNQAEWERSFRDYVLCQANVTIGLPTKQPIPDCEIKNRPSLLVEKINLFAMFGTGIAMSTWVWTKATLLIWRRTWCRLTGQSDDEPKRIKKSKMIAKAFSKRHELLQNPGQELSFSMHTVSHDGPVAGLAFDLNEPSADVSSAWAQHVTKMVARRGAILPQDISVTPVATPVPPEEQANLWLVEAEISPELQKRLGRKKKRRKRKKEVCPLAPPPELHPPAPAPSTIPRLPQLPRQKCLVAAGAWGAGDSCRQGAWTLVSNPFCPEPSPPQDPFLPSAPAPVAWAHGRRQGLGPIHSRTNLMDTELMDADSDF

[5] = Inhibition of Shh-induced hedgehog signalling pathway in mouse MEF cells expressing Gli-Luc reporter gene assessed as reduction in Gli1 transcription activity incubated for 48 hrs in presence of recombinant mouse shh stimulation by Bright-Glo luciferase Assay
[6] = Ratio of AUC in brain to plasma of C57BL/6 mouse at 2 mg/kg, po and measured after 24 hrs by LC/MS-MS analysis; assay type: ADME, organism-based; details: read-out: Ratio AUC
[7] = Inhibition of hedgehog signalling in mouse Shh Light II cells transfected with Gli luciferase reporter gene assessed as Gli luciferase activity assessed as luciferase activity by luciferase assay; assay type: cell-based
[8] = Antiproliferative activity against neonatally irradiated Ptch1-/+ mouse medulloblastoma cells assessed as inhibition of cell proliferation; assay type: functional, cell-based; details: light or radiation study
[9] = Inhibition of hedgehog signalling in mouse Shh Light II cells co-transfected with Gli firefly and Renilla-luciferase assessed as reduction in SAG-induced Gli luciferase activity incubated for 24 hrs by dual luciferase reporter assay; assay type: cell-based
[10] = Anticancer activity against mouse Ptch+/- MB55 cells assessed as reduction in cell viability incubated for 72 hrs by CellTiter-Glo luminescent assay; assay type: functional, cell-based
[11] = Anticancer activity against mouse Ptch+/- Trp53-/- MB53 cells assessed as reduction in cell viability incubated for 72 hrs by CellTiter-Glo luminescent assay; assay type: functional, cell-based
[12] = Anticancer activity against mouse Ptch+/- MB21 cells assessed as reduction in cell viability incubated for 72 hrs by CellTiter-Glo luminescent assay; assay type: functional, cell-based
[13] = Inhibition of hedgehog signalling in mouse Shh Light II cells co-transfected with Gli firefly luciferase assessed as inhibition of Gli luciferase expression measured after 30 hrs by luciferase reporter assay; assay type: cell-based
Daoy [14] = assay: Antiproliferative activity against human Daoy cells assessed as inhibition of cell proliferation incubated for 72 hrs by MTS assay; assay type: functional, cell-based
[15] = Antiproliferative activity against human UW228 cells assessed as inhibition of cell proliferation incubated for 72 hrs by MTS assay; assay type: functional, cell-based; details: UW228, 72 h
[16] = Antiproliferative activity against human Medulloblastoma cells expressing MYC and wild type Gfi1 assessed as reduction in cell viability incubated for 48 hrs by Cell TiterGlo luminescent assay; assay type: functional, cell-based
D283 Med [17] = assay: Antiproliferative activity against human D283 Med cells assessed as inhibition of cell proliferation incubated for 48 hrs by MTS assay; assay type: functional, cell-based
[18] = Antitumor activity against human HD-MB03 cells assessed as inhibition of cell growth incubated for 72 hrs by CellTiter-Glo luminescent assay; assay type: functional
ONS-76 [19] = assay: Antitumor activity against human ONS-76 cells assessed as inhibition of cell growth incubated for 72 hrs by CellTiter-Glo luminescent assay; assay type: functional
Daoy [20] = assay: Antitumor activity against human Daoy cells assessed as inhibition of cell growth incubated for 72 hrs by CellTiter-Glo luminescent assay; assay type: functional
[21] = Antitumor activity against human UW228 cells assessed as inhibition of cell growth incubated for 72 hrs by CellTiter-Glo luminescent assay; assay type: functional
Protein smoothened [22] = target: Protein smoothened (Homo sapiens, UniProt Q99835, D473H); assay: Inhibition of Smo D473H mutant (unknown origin) expressed in mouse NIH3T3 cells cotransfected with Gli luciferase reporter gene assessed as Gli luciferase activity incubated for 48 hrs by Bright-Glo reagent based luciferase assay; assay type: cell-based
Protein smoothened (Homo sapiens, UniProt Q99835, D473H), sequence (Q99835 28-787 D473H limits assumed): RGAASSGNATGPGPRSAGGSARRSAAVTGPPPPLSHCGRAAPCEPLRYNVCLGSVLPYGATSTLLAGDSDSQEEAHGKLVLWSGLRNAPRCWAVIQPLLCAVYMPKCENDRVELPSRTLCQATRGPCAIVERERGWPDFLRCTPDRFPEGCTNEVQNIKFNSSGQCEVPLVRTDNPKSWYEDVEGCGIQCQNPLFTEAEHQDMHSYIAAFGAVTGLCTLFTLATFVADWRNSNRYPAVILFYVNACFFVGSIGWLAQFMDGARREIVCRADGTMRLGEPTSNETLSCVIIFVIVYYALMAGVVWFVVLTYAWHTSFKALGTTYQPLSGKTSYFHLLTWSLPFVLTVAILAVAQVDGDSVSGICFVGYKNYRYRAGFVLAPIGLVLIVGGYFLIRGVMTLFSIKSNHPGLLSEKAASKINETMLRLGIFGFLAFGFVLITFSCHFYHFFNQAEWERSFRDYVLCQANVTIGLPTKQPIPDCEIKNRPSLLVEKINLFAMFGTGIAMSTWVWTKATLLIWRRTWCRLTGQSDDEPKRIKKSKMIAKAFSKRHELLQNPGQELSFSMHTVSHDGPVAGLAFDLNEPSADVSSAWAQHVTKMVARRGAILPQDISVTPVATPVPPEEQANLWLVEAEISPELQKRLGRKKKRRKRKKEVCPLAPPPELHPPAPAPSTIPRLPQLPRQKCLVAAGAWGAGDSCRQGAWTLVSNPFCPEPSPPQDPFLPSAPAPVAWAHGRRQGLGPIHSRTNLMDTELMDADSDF

[23] = Inhibition of hedgehog signalling in mouse NIH3T3 cells cotransfected with Gli luciferase reporter gene assessed as Gli luciferase activity incubated for 48 hrs by Bright-Glo reagent based luciferase assay; assay type: cell-based; details: NIH3T3, 48 h
Daoy [24] = assay: Antiproliferative activity against human Daoy cells assessed as inhibition of cell growth incubated for 24 to 96 hrs by MTT assay; assay type: functional; details: time 24-96 hrs
ONS-76 [25] = assay: Antiproliferative activity against human ONS-76 cells assessed as inhibition of cell growth incubated for 24 to 96 hrs by MTT assay; assay type: functional; details: time 24-96 hrs
[26] = Antiproliferative activity against human pateint derived Medulloblastoma cells assessed as inhibition of cell growth incubated for 72 hrs by Alamar blue dye based fluorescence spectrophotometric assay; assay type: functional
[27] = Inhibition of hedgehog signalling in mouse NIH3T3 cells cotransfected with Gli/RE luciferase reporter gene assessed as Gli luciferase activity preincubated for 15 to 30 mins followed by ShhN stimulation and after 28 hrs by Steady-Glo reagent based luciferase assay
Daoy [28] = assay: Antiproliferative activity against human Daoy cells assessed as inhibition of cell growth incubated for 72 hrs by Alamar blue dye based fluorescence spectrophotometric assay; assay type: functional
[29] = Inhibition of Hedgehog signaling in mouse NIH3T3 cells expressing GRE-Luc reporter gene assessed luciferase activity incubated for 48 hrs in presence of SAG by Bright-Glo luciferase assay; assay type: cell-based
[30] = Anticancer activity against human UW426 cells assessed as reduction in cell viability incubated for 72 hrs by CCK assay; assay type: functional, cell-based; details: UW426, 72 h
[31] = Anticancer activity against human MED-MEB-8A cells assessed as reduction in cell viability incubated for 72 hrs by CCK assay; assay type: functional, cell-based
[32] = Anticancer activity against human UW228 cells assessed as reduction in cell viability incubated for 72 hrs by CCK assay; assay type: functional, cell-based; details: UW228, 72 h

Structure (SMILES): CCN1CCN(Cc2ccc(-c3cc4c(N[C@H](C)c5ccccc5)ncnc4[nH]3)cc2)CC1 [AEE-788]
- IC50 (D283 Med [1]): 3.8 µM
- IC50 (Daoy [2]): 1700 nM

Structure (SMILES): CCOc1ccc(-[n+]2cc(-c3ccc(Br)cc3)n3c2CCc2ccccc2-3)cc1
- IC50 [3]: 1420 nM

Structure (SMILES): Cc1cnc(-c2cc(N3CCN(C(=O)CCS(C)(=O)=O)CC3)ncc2Cl)c(C)c1
- IC50 (Protein smoothened [4]): 5.8 nM
- IC50 [5]: 2.7 nM

Structure (SMILES): Cn1c(-c2ccccc2C(F)(F)F)nnc1C12CCC(c3noc(C4CC(F)(F)C4)n3)(CC1)CC2
- Kp at 24 h [6]: 0.6
- IC50 [7]: 1500 nM
- IC50 [8]: 300 nM

Structure (SMILES): COc1cc2c(cc1-c1c(C)noc1C)ncc1[nH]c(=O)n([C@H](C)c3ccccn3)c12
- IC50 [9]: 30 nM

Structure (SMILES): O=C(O)c1ccc2c(c1)nc(Nc1cccc(Cl)c1)c1ccncc12 [SILMITASERTIB]
- IC50 [10]: 2500 nM
- IC50 [11]: 2500 nM
- IC50 [12]: 2500 nM

Structure (SMILES): C[C@H](CO)N1C[C@H](C)[C@H](CN(C)S(=O)(=O)c2ccc(Cl)cc2Cl)Oc2c(NC(=O)C3CC3)cccc2C1=O
- IC50 [13]: 60 nM

Structure (SMILES): COc1ccc(Cn2c3ncnc4c(ncn4Cc4ccc(OC)cc4)c-3nc2=O)cc1
- IC50 (Daoy [14]): 2500 nM
- IC50 [15]: 3.5 µM

Structure (SMILES): c1ccc([C@@H]2C[C@H]2NC2CCNCC2)cc1
- IC50 [16]: 0.05 nM

Structure (SMILES): Fc1ccc(CNc2ncnc3c2cnn3CC(Cl)c2ccc(Cl)cc2)cc1 (configuration not stated)
- IC50 (D283 Med [17]): 4.89 µM

Structure (SMILES): Cc1sc2c(c1C)C(c1ccc(Cl)cc1)=N[C@@H](CC(=O)Nc1ccc(O)cc1)c1nnc(C)n1-2 [BIRABRESIB]
- GI50 [18]: 160 nM
- GI50 (ONS-76 [19]): 160 nM
- GI50 (Daoy [20]): 160 nM
- GI50 [21]: 160 nM

Structure (SMILES): CCc1cc2c(c(OCC(F)(F)F)c(C(=O)NC3CCN(C(=O)CO)CC3)n2C)c(=O)n1CC(=O)c1ccccc1 [TAK-441]
- IC50 (Protein smoothened [22]): 79 nM
- IC50 [23]: 4.4 nM

Structure (SMILES): CC1=C(/C=C/C(C)=C/C=C/C(C)=C/C(=O)Nc2ccc(O)cc2)C(C)(C)CCC1 [FENRETINIDE]
- GI50 (Daoy [24]): 5 µM
- GI50 (ONS-76 [25]): 2000 nM

Structure (SMILES): Cc1cn(-c2cc(NC(=O)c3ccc(C)c(Nc4nccc(-c5cccnc5)n4)c3)cc(C(F)(F)F)c2)cn1 [NILOTINIB]
- IC50 [26]: 5 µM
- IC50 [27]: 374 nM
- IC50 (Daoy [28]): 6 µM

Structure (SMILES): Cc1cnc(-c2cc(N3CCc4nc(N5CCC(O)CC5)ncc4C3)ccc2Cl)c(C)c1
- IC50 [29]: 7.5 nM

Structure (SMILES): Cc1[nH]c2ccccc2c1CCNCc1ccc(/C=C/C(=O)NO)cc1 [PANOBINOSTAT]
- IC50 [30]: 67 nM
- IC50 [31]: 46 nM
- IC50 [32]: 54 nM
